# Assay results published in US20030224978A1, “Compounds and methods for modulating apoptosis” (McGill University, priority 1996, published 2003).
# Entries after “also recorded” stand apart in the source; their conditions may differ. Positions of bridges follow the written chain, without caps; N, C: chain ends. Residues, ends and D or L forms follow the SMILES beside them.
# Experiments:
# [1] = system: SKOV3 cells; assay: Disruption of human ovarian cancer cell (SKOV3) adhesion; assay type: cell-based; conditions: for activity on SKOV3 cell adhesion: 0.01-1 mg/mL, up to 48 hours; for effect on SKOV3 cell adhesion: final concentration of 1 mg/mL media, within 24 hours
# Text: Within one representative cell adhesion assay, the addition of a modulating agent to cells that express a cadherin results in disruption of cell adhesion. A “cadherin-expressing cell,” as used herein, may be any type of cell that expresses at least one cadherin on the cell surface at a detectable level, using standard techniques such as immunocytochemical protocols (Blaschuk and Farookhi, Dev. Biol. 136:564-567, 1989). Cadherin-expressing cells include endothelial (e.g., bovine pulmonary artery endothelial cells), epithelial and/or cancer cells (e.g., the human ovarian cancer cell line SKOV3 (ATCC #HTB-77)). For example, such cells may be plated under standard conditions that permit cell adhesion in the presence and absence of modulating agent (e.g., 500 μg/mL). Disruption of cell adhesion may be determined visually within 24 hours, by observing retraction of the cells from one another.
# The human ovarian cancer cell line SKOV3 (ATCC #HTB-77) expresses N-cadherin. SKOV3 cells were cultured in a modified MEM-based media containing 10% FCS. Cells were grown in T-250 culture flasks and maintained by periodic subculturing. Cyclic peptides were tested on cells grown in individual wells of 96-well culture dishes (surface area of each well was 0.32 cm^2). Cells were harvested from flasks and seeded at a density of 50,000 cells per well in 0.1 mL media containing the cyclic peptides at concentrations of 1, 0.1, or 0.01 mg/mL, or in the absence of cyclic peptide. Media control wells were also established. Cultures were evaluated periodically by microscopic examination under both bright field and phase contrast conditions. Cultures were maintained for 48 hours.
# [2] = system: angiogenesis in chick embryonic chorioallantoic membranes; assay: Chick chorioallantoic membrane angiogenesis assay; assay type: in vivo; conditions: for inhibition of angiogenesis, in words: 3, 17, and 33 μg/mesh; for percent inhibition of angiogenesis: 24 hours
# Experimental: The chick chorioallantoic membrane assay was used to assess the effects of cyclic peptides on angiogenesis (Iruela-Arispe et al., Molecular Biology of the Cell 6:327-343, 1995). Cyclic peptides were embedded in a mesh composed of vitrogen at concentrations of 3, 17, and 33 μg/mesh. The meshes were then applied to 12-day-old chick embryonic chorioallantoic membranes. After 24 hours, the effects of the peptides on angiogenesis were assessed by computer assisted morphometric analysis.
# For each concentration of cyclic peptide, the percent inhibition of angiogenesis (relative to the level of angiogenesis in the absence of cyclic peptide) is provided. Assays were performed in the presence (+) or absence (−) of […] VEGF. For example, the cyclic peptide N-Ac-CHAVC-NH2 (SEQ ID NO:10) inhibited angiogenesis by 46%, 51%, and 51% at concentrations of 3, 17, and 33 μg/mesh, respectively.
# [3] = in vitro; assay type: cell-based; conditions: human
# Procedure, shortened: (§1)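 Cytotoxicity assessed by MTT assay and proliferation by ³H-thymidine incorporation, with peptides tested at concentrations up to 100 μM.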
# [4] = in vitro; assay type: cell-based; conditions: human; remark: listed apart in the source
# Procedure, shortened: as §1
# [5] = in vitro; assay type: cell-based; conditions: human; remark: listed apart in the source
# Procedure, shortened: as §1
# [6] = in vitro; assay type: cell-based; conditions: human; remark: listed apart in the source
# Procedure, shortened: as §1
# [7] = system: bovine pulmonary artery endothelial cells; assay: Disruption of bovine endothelial cell adhesion; assay type: cell-based; conditions: 500 μg/ml, 30 minutes
# Experimental: For use within one such assay, bovine pulmonary artery endothelial cells may be harvested by sterile ablation and digestion in 0.1% collagenase (type II; Worthington Enzymes, Freehold, N.J.). Cells may be maintained in Dulbecco's minimum essential medium supplemented with 10% fetal calf serum and 1% antibiotic-antimycotic at 37° C. in 7% CO2 in air. Cultures may be passaged weekly in trypsin-EDTA and seeded onto tissue culture plastic at 20,000 cells/cm^2. Endothelial cultures may be used at 1 week in culture, which is approximately 3 days after culture confluency is established. The cells may be seeded onto coverslips and treated (e.g., for 30 minutes) with modulating agent or a control compound at, for example, 500 μg/ml and then fixed with 1% paraformaldehyde. As noted above, disruption of cell adhesion may be determined visually within 24 hours, by observing retraction of the cells from one another. This assay evaluates the effect of a modulating agent on N-cadherin mediated cell adhesion.
# Bovine pulmonary artery endothelial cells were harvested by sterile ablation and digestion in 0.1% collagenase (type II; Worthington Enzymes, Freehold, N.J.). Cells were maintained in Dulbecco's […] essential medium (Clonetics, San Diego, Calif.) supplemented with 10% fetal calf serum (Atlantic Biologicals, Nor cross, Ga.) and 1% antibiotic-antimycotic at 37° C. in 7% CO2 in air. Cultures were passaged weekly in trypsin-EDTA (Gibco, Grand Island, N.Y.) and seeded onto tissue culture plastic at 20,000 cells/cm^2 for all experiments. Endothelial cultures were used at 1 week in culture, which is approximately 3 days after culture confluency was established. The cells used in all protocols were between 4th passage and 10th passage. The cells were seeded onto coverslips and treated 30 minutes with N-Ac-CHAVC-NH2 (SEQ ID NO:10) or N-Ac-CHGVC-NH2 (SEQ ID NO:20) at 500 μg/ml and then fixed with 1% paraformaldehyde.
Structure (SMILES),activity on SKOV3 cell adhesion [1],"inhibition of angiogenesis, in words [2]",IC50 [3] [µM],IC50 [4] [µM],IC50 [5] [µM],IC50 [6] [µM],effect on endothelial cell monolayer / morphology [7],"SKOV3 cell morphology ([1]; 0.5 mg/ml, 24 hours)","SKOV3 cell morphology ([1]; 0.5 or 1 mg/ml, 24-48 hours)",effect on SKOV3 cell adhesion [1],"percent inhibition of angiogenesis ([2]; 3 μg/mesh, absence (−) of 0.01 mM VEGF) [%]","percent inhibition of angiogenesis ([2]; 3 μg/mesh, presence (+) of 0.01 mM VEGF) [%]","percent inhibition of angiogenesis ([2]; 17 μg/mesh, absence (−) of 0.01 mM VEGF) [%]","percent inhibition of angiogenesis ([2]; 17 μg/mesh, presence (+) of 0.01 mM VEGF) [%]","percent inhibition of angiogenesis ([2]; 33 μg/mesh, absence (−) of 0.01 mM VEGF) [%]","percent inhibition of angiogenesis ([2]; 33 μg/mesh, presence (+) of 0.01 mM VEGF) [%]"
CC[C@H](C)[C@@H]1NC(=O)[C@H](CC(=O)O)NC(=O)[C@H](C(C)C)NC(=O)[C@H](C)NC(=O)[C@H](Cc2c[nH]cn2)NC(=O)[C@H](C)NC(=O)[C@@H](NC(C)=O)CSSC[C@@H](C(N)=O)NC1=O (Ac-CAHAVDIC-NH2; disulfide 1-8),inactive,inhibited angiogenesis significantly,> 100,> 100,> 100,> 100,had no effect on endothelial cell morphology; also recorded: neither of the cyclic peptides show activity,–,–,–,–,–,–,–,–,–
"CC(=O)N[C@H]1CSSC[C@@H](C(N)=O)NC(=O)[C@H](CC(=O)O)NC(=O)[C@H](C(C)C)NC(=O)[C@H](C)NC(=O)[C@H](Cc2c[nH]cn2)NC(=O)[C@H](C)NC1=O [N-Ac-CAHAVDC-NH2, N-Ac-Cys-Ala-His-Ala-Val-Asp-Cys-NH2] (Ac-CAHAVDC-NH2; disulfide 1-7)",inactive,inhibited angiogenesis significantly,> 100,> 100,> 100,> 100,had a slight effect; also recorded: retracted from one another,–,–,–,–,–,–,–,–,–
"CC(=O)N[C@H]1CSSC[C@@H](C(N)=O)NC(=O)[C@H](C(C)C)NC(=O)[C@H](C)NC(=O)[C@H](Cc2c[nH]cn2)NC1=O [N-Ac-CHAVC-NH2, N-Ac-Cys-His-Ala-Val-Cys-NH2]",–,–,–,–,–,–,disrupted the endothelial cell monolayer; also recorded: retracted from one another,round-up,retract from one another and round-up,disrupted SKOV3 cell adhesion,–,–,–,–,–,–
"CC(=O)N[C@H]1CSSC[C@@H](C(N)=O)NC(=O)[C@H](CO)NC(=O)[C@H](C(C)C)NC(=O)[C@H](C)NC(=O)[C@H](Cc2c[nH]cn2)NC1=O [N-Ac-CHAVSC-NH2, N-Ac-Cys-His-Ala-Val-Ser-Cys-NH2] (Ac-CHAVSC-NH2; disulfide 1-6)",–,relatively inactive,> 100,> 100,> 100,> 100,had no effect on endothelial cell morphology,–,–,–,11,17,12,16,17,19
"CC(=O)N[C@H]1CSSC[C@@H](C(N)=O)NC(=O)[C@H](C(C)C)NC(=O)CNC(=O)[C@H](Cc2c[nH]cn2)NC1=O [N-Ac-CHGVC-NH2, reference compound]",–,–,–,–,–,–,inactive,–,–,had no affect on cell adhesion,–,–,–,–,–,–
